According to ChEMBL document CHEMBL6134816, “The discovery of novel N-heterocyclic-based AKT inhibitors with potential efficacy against prostate cancer” (Eur J Med Chem, 2025):
Calls of active or inactive are those of the source. No cut-off for these calls is given here.

Experiments:
[1] = system: PC-3; assay: cells; conditions: Homo sapiens, PC-3, 72 h
Description: Antiproliferative activity against human PC-3 cells assessed as inhibition of cell proliferation incubated for 72 hrs by MTT assay

[2] = system: PC-3; assay: Induction of apoptosis in human PC-3 cells assessed as apoptotic rate at 1 uM incubated for 48 hrs by Annexin V-FITC/PI staining based flow cytometric analysis relative to control; assay type: functional
[3] = system: PC-3; assay: Induction of apoptosis in human PC-3 cells assessed as apoptotic rate at 5 to 10 uM incubated for 48 hrs by Annexin V-FITC/PI staining based flow cytometric analysis relative to control; assay type: functional; conditions: dose 5-10 µM
[4] = system: PC-3; assay: Cell cycle arrest in human PC-3 cells assessed as accumulation of cells at G1 phase at 1 uM incubated for 48 hrs by PI staining based flow cytometric analysis (reference value: 60.75 %); assay type: functional
[5] = system: PC-3; assay: Cell cycle arrest in human PC-3 cells assessed as accumulation of cells at S phase at 1 uM incubated for 48 hrs by PI staining based flow cytometric analysis (reference value: 24.79 %); assay type: functional
[6] = system: PC-3; assay: Cell cycle arrest in human PC-3 cells assessed as accumulation of cells at G2 phase at 1 uM incubated for 48 hrs by PI staining based flow cytometric analysis (reference value: 14.45 %); assay type: functional
[7] = system: PC-3; assay: Cell cycle arrest in human PC-3 cells assessed as accumulation of cells at G1 phase at 5 uM incubated for 48 hrs by PI staining based flow cytometric analysis (reference value: 60.75 %); assay type: functional
[8] = system: PC-3; assay: Cell cycle arrest in human PC-3 cells assessed as accumulation of cells at S phase at 5 uM incubated for 48 hrs by PI staining based flow cytometric analysis (reference value: 24.79 %); assay type: functional
[9] = system: PC-3; assay: Cell cycle arrest in human PC-3 cells assessed as accumulation of cells at G2 phase at 5 uM incubated for 48 hrs by PI staining based flow cytometric analysis (reference value: 14.45 %); assay type: functional
[10] = system: PC-3; assay: Cell cycle arrest in human PC-3 cells assessed as accumulation of cells at G1 phase at 10 uM incubated for 48 hrs by PI staining based flow cytometric analysis (reference value: 60.75 %); assay type: functional
[11] = system: PC-3; assay: Cell cycle arrest in human PC-3 cells assessed as accumulation of cells at S phase at 10 uM incubated for 48 hrs by PI staining based flow cytometric analysis (reference value: 24.79 %); assay type: functional
[12] = system: PC-3; assay: Cell cycle arrest in human PC-3 cells assessed as accumulation of cells at G2 phase at 10 uM incubated for 48 hrs by PI staining based flow cytometric analysis (reference value: 14.45 %); assay type: functional
[13] = system: PC-3; assay: Inhibition of AKT signaling pathway in human PC-3 cells assessed as reduction in phosphorylated GSK3beta level at 1 to 10 uM incubated for 24 hrs by Western blot analysis; assay type: cell-based; conditions: dose 1-10 µM
[14] = system: PC-3; assay: Upregulation of phosphorylated AKT expression level in human PC-3 cells at 1 to 10 uM incubated for 24 hrs by Western blot analysis; assay type: functional, cell-based; conditions: dose 1-10 µM
[15] = biological target: RAC-beta serine/threonine-protein kinase (Homo sapiens) (UniProt P31751); assay: Inhibition of AKT2 (unknown origin) using biotin-tagged STK as substrate at 10 nM incubated for 40 mins in presence of ATP by fluorescence based microplate reader analysis relative to control
[16] = biological target: RAC-gamma serine/threonine-protein kinase (Homo sapiens) (UniProt Q9Y243); assay: Inhibition of AKT3 (unknown origin) using biotin-tagged STK as substrate at 10 nM incubated for 40 mins in presence of ATP by fluorescence based microplate reader analysis relative to control
Sequence of RAC-gamma serine/threonine-protein kinase (Homo sapiens) (Q9Y243 whole entry): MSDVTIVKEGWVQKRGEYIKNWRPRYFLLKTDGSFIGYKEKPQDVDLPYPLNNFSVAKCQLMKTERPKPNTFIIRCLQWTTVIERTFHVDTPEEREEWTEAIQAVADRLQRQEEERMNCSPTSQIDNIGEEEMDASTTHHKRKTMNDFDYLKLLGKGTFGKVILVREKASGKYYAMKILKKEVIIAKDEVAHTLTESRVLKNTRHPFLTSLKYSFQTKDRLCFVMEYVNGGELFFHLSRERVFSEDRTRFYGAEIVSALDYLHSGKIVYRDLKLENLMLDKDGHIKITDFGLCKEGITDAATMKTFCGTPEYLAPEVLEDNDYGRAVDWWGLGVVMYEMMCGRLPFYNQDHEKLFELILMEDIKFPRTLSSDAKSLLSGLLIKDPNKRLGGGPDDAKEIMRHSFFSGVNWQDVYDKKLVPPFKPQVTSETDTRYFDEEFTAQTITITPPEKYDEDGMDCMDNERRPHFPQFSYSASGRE

[17] = biological target: Ribosomal protein S6 kinase alpha-1 (Homo sapiens) (UniProt Q15418); assay: Inhibition of RSK1 (unknown origin) at 1 uM relative to control
[18] = species: Homo sapiens; assay: Inhibition of PKA (unknown origin) at 1 uM relative to control
[19] = biological target: Ribosomal protein S6 kinase beta-1 (Homo sapiens) (UniProt P23443); assay: Inhibition of p70S6K (unknown origin) at 1 uM relative to control
Sequence of Ribosomal protein S6 kinase beta-1 (Homo sapiens) (P23443 whole entry, looked up): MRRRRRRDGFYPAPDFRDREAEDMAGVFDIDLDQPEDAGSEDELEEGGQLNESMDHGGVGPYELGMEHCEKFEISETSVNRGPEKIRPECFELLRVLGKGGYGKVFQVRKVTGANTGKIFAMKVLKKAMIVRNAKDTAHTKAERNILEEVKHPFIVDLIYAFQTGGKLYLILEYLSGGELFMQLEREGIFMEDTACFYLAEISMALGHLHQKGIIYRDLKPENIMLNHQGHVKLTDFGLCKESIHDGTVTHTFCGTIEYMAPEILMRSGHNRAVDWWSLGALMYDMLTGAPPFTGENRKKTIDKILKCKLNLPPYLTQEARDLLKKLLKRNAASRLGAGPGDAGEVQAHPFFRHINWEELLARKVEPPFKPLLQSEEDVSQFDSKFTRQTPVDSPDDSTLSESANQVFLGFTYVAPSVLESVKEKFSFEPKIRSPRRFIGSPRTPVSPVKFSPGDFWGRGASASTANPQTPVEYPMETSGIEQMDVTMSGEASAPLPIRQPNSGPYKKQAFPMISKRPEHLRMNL

[20] = biological target: Rho-associated protein kinase 1 (Homo sapiens) (UniProt Q13464); assay: Inhibition of ROCK1 (unknown origin) at 1 uM relative to control
[21] = species: Homo sapiens; assay: Inhibition of ABL (unknown origin) at 1 uM relative to control
[22] = biological target: Cyclin-dependent kinase 1 (Homo sapiens) (UniProt P06493); assay: Inhibition of CDK1 (unknown origin) at 1 uM relative to control
Sequence of Cyclin-dependent kinase 1 (Homo sapiens) (P06493 whole entry, looked up): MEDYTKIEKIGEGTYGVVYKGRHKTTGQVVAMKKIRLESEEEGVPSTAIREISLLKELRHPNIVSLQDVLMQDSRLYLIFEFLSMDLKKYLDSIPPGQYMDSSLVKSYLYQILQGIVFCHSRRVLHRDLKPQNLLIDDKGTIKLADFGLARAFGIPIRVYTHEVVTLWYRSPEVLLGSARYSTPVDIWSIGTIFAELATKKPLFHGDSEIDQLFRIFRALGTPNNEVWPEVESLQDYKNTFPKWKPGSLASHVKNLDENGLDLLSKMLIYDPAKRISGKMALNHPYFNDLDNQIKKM

[23] = biological target: Glycogen synthase kinase-3 beta (Homo sapiens) (UniProt P49841); assay: Inhibition of GSK3beta (unknown origin) at 1 uM relative to control
Sequence of Glycogen synthase kinase-3 beta (Homo sapiens) (P49841 whole entry, looked up): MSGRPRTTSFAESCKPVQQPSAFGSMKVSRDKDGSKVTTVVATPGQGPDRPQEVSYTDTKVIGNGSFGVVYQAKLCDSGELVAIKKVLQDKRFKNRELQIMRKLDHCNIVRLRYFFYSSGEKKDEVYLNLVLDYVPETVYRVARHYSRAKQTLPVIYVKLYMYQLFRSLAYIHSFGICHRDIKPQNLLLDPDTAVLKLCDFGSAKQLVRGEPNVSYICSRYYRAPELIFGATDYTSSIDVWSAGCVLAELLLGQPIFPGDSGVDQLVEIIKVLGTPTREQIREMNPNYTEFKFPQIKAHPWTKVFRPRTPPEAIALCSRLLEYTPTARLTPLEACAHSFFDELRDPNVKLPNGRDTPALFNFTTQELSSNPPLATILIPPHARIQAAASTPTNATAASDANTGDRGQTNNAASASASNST

[24] = biological target: Tyrosine-protein kinase JAK1 (Homo sapiens) (UniProt P23458); assay: Inhibition of JAK1 (unknown origin) at 1 uM relative to control
Sequence of Tyrosine-protein kinase JAK1 (Homo sapiens) (P23458 whole entry): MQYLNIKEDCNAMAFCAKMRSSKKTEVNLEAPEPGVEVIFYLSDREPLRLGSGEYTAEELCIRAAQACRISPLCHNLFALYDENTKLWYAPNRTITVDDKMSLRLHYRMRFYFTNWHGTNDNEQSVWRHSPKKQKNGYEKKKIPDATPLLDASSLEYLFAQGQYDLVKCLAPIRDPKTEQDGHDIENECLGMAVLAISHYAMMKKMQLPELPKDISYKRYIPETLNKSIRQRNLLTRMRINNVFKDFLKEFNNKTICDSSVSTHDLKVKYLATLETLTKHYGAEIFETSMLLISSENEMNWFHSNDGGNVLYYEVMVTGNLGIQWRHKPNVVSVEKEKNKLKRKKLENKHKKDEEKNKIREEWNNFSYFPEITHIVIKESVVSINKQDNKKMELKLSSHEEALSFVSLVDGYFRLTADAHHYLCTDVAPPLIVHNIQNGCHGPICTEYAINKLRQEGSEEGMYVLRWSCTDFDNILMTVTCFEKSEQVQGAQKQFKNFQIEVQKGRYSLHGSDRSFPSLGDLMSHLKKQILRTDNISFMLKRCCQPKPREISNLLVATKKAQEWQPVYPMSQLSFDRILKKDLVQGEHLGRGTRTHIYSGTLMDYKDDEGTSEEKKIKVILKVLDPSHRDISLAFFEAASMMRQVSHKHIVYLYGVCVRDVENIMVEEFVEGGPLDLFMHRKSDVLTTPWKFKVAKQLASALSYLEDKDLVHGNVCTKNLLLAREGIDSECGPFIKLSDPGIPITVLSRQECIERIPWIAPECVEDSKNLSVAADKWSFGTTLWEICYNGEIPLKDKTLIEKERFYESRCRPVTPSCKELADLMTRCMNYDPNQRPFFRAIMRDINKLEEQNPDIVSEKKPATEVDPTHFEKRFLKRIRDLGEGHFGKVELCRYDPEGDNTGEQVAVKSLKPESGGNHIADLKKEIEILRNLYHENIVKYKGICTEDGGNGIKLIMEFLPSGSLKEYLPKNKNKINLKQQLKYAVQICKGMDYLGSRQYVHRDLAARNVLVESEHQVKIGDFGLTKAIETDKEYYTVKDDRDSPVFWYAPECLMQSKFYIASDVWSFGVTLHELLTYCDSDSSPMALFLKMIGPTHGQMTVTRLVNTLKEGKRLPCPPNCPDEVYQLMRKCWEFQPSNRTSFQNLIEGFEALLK

[25] = biological target: MAP kinase-interacting serine/threonine-protein kinase 1 (Homo sapiens) (UniProt Q9BUB5); assay: Inhibition of MNK1 (unknown origin) at 1 uM relative to control
Sequence of MAP kinase-interacting serine/threonine-protein kinase 1 (Homo sapiens) (Q9BUB5 whole entry, looked up): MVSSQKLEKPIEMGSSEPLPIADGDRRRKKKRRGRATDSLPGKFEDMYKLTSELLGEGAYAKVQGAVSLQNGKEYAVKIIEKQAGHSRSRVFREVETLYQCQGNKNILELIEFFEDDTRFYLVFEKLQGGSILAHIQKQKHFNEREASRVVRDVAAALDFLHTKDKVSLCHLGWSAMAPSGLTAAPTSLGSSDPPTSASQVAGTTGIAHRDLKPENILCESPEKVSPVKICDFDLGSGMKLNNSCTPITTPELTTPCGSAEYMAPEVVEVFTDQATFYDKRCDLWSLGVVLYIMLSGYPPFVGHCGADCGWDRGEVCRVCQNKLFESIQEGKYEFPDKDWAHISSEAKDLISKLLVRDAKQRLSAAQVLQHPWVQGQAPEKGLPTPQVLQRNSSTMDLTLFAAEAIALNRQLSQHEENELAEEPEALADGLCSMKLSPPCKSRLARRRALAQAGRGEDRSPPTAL

[26] = biological target: Serine/threonine-protein kinase B-raf (Homo sapiens) (UniProt P15056); assay: Inhibition of B-raf (unknown origin) at 1 uM relative to control
Sequence of Serine/threonine-protein kinase B-raf (Homo sapiens) (P15056 whole entry): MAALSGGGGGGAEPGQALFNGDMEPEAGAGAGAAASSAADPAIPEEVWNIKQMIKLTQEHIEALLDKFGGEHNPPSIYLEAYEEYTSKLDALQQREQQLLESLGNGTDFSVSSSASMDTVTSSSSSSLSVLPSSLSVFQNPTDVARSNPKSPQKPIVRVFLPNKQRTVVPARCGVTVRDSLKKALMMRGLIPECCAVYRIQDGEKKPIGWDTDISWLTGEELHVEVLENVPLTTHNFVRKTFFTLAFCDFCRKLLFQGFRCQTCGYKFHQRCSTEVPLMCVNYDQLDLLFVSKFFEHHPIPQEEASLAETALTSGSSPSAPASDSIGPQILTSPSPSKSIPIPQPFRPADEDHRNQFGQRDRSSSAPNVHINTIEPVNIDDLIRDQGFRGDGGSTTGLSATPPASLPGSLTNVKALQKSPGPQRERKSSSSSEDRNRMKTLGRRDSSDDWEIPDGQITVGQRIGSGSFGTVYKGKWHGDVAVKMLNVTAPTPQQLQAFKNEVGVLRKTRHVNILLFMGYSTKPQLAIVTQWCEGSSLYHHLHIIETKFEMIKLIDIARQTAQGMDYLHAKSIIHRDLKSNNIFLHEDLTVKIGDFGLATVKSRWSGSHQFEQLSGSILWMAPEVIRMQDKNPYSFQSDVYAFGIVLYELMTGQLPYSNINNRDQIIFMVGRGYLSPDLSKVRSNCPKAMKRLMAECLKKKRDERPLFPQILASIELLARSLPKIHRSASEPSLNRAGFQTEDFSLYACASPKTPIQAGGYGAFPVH

[27] = biological target: RAF proto-oncogene serine/threonine-protein kinase (Homo sapiens) (UniProt P04049); assay: Inhibition of RAF-1 (unknown origin) at 1 uM relative to control
Sequence of RAF proto-oncogene serine/threonine-protein kinase (Homo sapiens) (P04049 whole entry): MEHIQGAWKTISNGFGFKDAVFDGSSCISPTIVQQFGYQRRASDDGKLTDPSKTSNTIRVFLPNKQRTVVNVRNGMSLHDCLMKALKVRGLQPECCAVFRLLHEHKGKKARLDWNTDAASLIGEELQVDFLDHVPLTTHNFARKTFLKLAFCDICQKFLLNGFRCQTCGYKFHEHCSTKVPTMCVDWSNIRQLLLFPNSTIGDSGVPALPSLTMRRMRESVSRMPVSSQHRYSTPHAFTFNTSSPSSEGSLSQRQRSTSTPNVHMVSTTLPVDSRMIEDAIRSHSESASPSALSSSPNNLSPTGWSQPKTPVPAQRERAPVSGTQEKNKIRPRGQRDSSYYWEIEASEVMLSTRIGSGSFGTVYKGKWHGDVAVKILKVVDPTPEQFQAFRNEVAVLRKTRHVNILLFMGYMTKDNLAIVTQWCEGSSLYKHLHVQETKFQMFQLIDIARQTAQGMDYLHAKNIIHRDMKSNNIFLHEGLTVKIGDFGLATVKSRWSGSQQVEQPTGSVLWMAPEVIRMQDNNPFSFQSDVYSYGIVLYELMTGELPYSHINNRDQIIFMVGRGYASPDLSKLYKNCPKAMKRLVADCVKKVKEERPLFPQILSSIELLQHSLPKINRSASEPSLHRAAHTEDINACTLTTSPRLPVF

[28] = Clearance in male ICR mouse at 1 mg/kg, iv measured after 24 hrs by LC-MS/MS analysis; assay type: ADME, organism-based; conditions: in vivo
[29] = Half-life in male ICR mouse at 1 mg/kg, iv measured after 24 hrs by LC-MS/MS analysis; assay type: ADME, organism-based; conditions: in vivo
[30] = AUC (0 to t) in male ICR mouse at 1 mg/kg, iv measured after 24 hrs by LC-MS/MS analysis; assay type: ADME, organism-based; conditions: in vivo
[31] = AUC (0 to infinity) in male ICR mouse at 1 mg/kg, iv measured after 24 hrs by LC-MS/MS analysis; assay type: ADME, organism-based; conditions: in vivo
[32] = Volume of distribution in male ICR mouse at 1 mg/kg, iv measured after 24 hrs by LC-MS/MS analysis; assay type: ADME, organism-based; conditions: in vivo
[33] = MRT (0 to infinity) in male ICR mouse at 1 mg/kg, iv measured after 24 hrs by LC-MS/MS analysis; assay type: ADME, organism-based; conditions: in vivo
[34] = Half-life in male ICR mouse at 10 mg/kg, po measured after 24 hrs by LC-MS/MS analysis; assay type: ADME, organism-based; conditions: in vivo
[35] = AUC (0 to t) in male ICR mouse at 10 mg/kg, po measured after 24 hrs by LC-MS/MS analysis; assay type: ADME, organism-based; conditions: in vivo
[36] = AUC (0 to infinity) in male ICR mouse at 10 mg/kg, po measured after 24 hrs by LC-MS/MS analysis; assay type: ADME, organism-based; conditions: in vivo
[37] = MRT (0 to infinity) in male ICR mouse at 10 mg/kg, po measured after 24 hrs by LC-MS/MS analysis; assay type: ADME, organism-based; conditions: in vivo
[38] = Tmax in male ICR mouse at 10 mg/kg, po measured after 24 hrs by LC-MS/MS analysis; assay type: ADME, organism-based; conditions: in vivo
[39] = Cmax in male ICR mouse at 10 mg/kg, po measured after 24 hrs by LC-MS/MS analysis; assay type: ADME, organism-based; conditions: in vivo
[40] = Oral bioavailability in male ICR mouse at 10 mg/kg measured after 24 hrs by LC-MS/MS analysis; assay type: ADME, organism-based; conditions: in vivo

Compound: CC(C)NCC(C(=O)N1CCN(c2ncnc3[nH]ncc23)CC1)c1ccc(Cl)cc1Cl (stereo not given)
- IC50 [1]: > 40 µM

Compound: CC(C)NCC(C(=O)N1CCN(c2ncnc3[nH]cnc23)CC1)c1ccc(Br)cc1 (stereo not given)
- IC50 [1]: 20.1 µM

Compound: CNc1nc(N2CCN(C(=O)C(CNC(C)C)c3ccc(Cl)cc3Cl)CC2)c2sccc2n1 (stereo not given)
- IC50 [1]: 5.9 µM

Compound: CC(C)NCC(C(=O)N1CCN(c2ncnc3[nH]ncc23)CC1)c1ccc(Br)cc1 (stereo not given)
- IC50 [1]: 12.4 µM

Compound: CNc1nc(N2CCN(C(=O)C(CNC(C)C)c3ccc(Cl)cc3Cl)CC2)c2cc[nH]c2n1 (stereo not given)
- IC50 [1]: 18.1 µM

Compound: CC(C)NCC(C(=O)N1CCN(c2ncnc3[nH]nc(Cl)c23)CC1)c1ccc(Br)cc1 (stereo not given)
- Activity [2]: 15.13%
- Activity [3]: >20%
- Activity [4]: 52.46%
- Activity [5]: 32.69%
- Activity [6]: 14.35%
- Activity [7]: 53.89%
- Activity [8]: 36.86%
- Activity [9]: 9.25%
- Activity [10]: 46.45%
- Activity [11]: 47.17%
- Activity [12]: 6.37%
- inhibition [13]: Active
- Activity [14]: Active; Negative Feedback Regulation Within Akt Signaling Pathway Observed
- IC50 [1]: 2.9 µM

Compound: CC(C)NCC(C(=O)N1CCN(c2ncnc3[nH]nc(Br)c23)CC1)c1ccc(Br)cc1 (stereo not given)
- Activity [2]: 12.28%
- Activity [3]: >20%
- Activity [4]: 49.42%
- Activity [5]: 38.35%
- Activity [6]: 12.24%
- Activity [7]: 53.21%
- Activity [8]: 36.75%
- Activity [9]: 10.04%
- Activity [10]: 52.45%
- Activity [11]: 38.31%
- Activity [12]: 9.23%
- inhibition [13]: Active
- Activity [14]: Active; Negative Feedback Regulation Within Akt Signaling Pathway Observed
- inhibition [15]: 64%
- inhibition [16]: 89%
- inhibition [17]: 99%
- inhibition [18]: 98%
- inhibition [19]: 101%
- inhibition [20]: 91%
- inhibition [21]: < 60%
- inhibition [22]: < 60%
- inhibition [23]: < 60%
- inhibition [24]: < 60%
- inhibition [25]: < 60%
- inhibition [26]: < 60%
- inhibition [27]: < 60%
- clearance [28]: 78.6 mL/min/kg
- half-life [29]: 1.85 h
- AUC(0-t) at 24 h [30]: 202 ng·h/mL
- AUC(0-inf) [31]: 214 ng·h/mL
- Vd [32]: 12.3 L/kg
- MRT inf [33]: 1.68 h
- half-life [34]: 1.59 h
- AUC(0-t) at 24 h [35]: 830 ng·h/mL
- AUC(0-inf) [36]: 876 ng·h/mL
- MRT inf [37]: 2.43 h
- Tmax [38]: 0.5 h
- Cmax [39]: 306 ng/mL
- bioavailability [40]: 41%
- IC50 [1]: 3 µM

Compound: Cc1c[nH]c2ncnc(N3CCN(C(=O)C(CNC(C)C)c4ccc(Cl)cc4Cl)CC3)c12 (stereo not given)
- IC50 [1]: 22 µM

Compound: CC(C)NCC(C(=O)N1CCN(c2ncnc3[nH]nc(Cl)c23)CC1)c1ccc(Cl)cc1Cl (stereo not given)
- IC50 [1]: 3.5 µM

Compound: CC(C)NCC(C(=O)N1CCN(c2ncnc3[nH]cnc23)CC1)c1ccc(Cl)cc1Cl (stereo not given)
- IC50 [1]: 23.8 µM

Compound: CCn1c(-c2nonc2N)nc2c(C#CC(C)(C)O)ncc(OC[C@H]3CCCNC3)c21 [GSK-690693]
- Activity [2]: 10.52%
- Activity [4]: 48.89%
- Activity [5]: 45.34%
- Activity [6]: 5.77%
- Activity [7]: 48.64%
- Activity [8]: 46.38%
- Activity [9]: 4.98%
- Activity [10]: 48.79%
- Activity [11]: 47.26%
- Activity [12]: 3.96%

Compound: CC(C)NCC(C(=O)N1CCN(c2ncnc3ccccc23)CC1)c1ccc(Cl)cc1Cl (stereo not given)
- IC50 [1]: > 40 µM

Compound: CC(C)NCC(C(=O)N1CCN(c2ncnc3ccccc23)CC1)c1ccc(Br)cc1 (stereo not given)
- IC50 [1]: 30.2 µM

Compound: CNc1nc(N2CCN(C(=O)C(CNC(C)C)c3ccc(Br)cc3)CC2)c2cc[nH]c2n1 (stereo not given)
- IC50 [1]: 8.7 µM

Compound: CC(C)NCC(C(=O)N1CCN(c2ncnc3[nH]nc(Br)c23)CC1)c1ccc(Cl)cc1Cl (stereo not given)
- IC50 [1]: 7.8 µM

Compound: CNc1nccc(N2CCN(C(=O)C(CNC(C)C)c3ccc(Br)cc3)CC2)n1 (stereo not given)
- IC50 [1]: > 40 µM

Compound: CNc1nccc(N2CCN(C(=O)C(CNC(C)C)c3ccc(Cl)cc3Cl)CC2)n1 (stereo not given)
- IC50 [1]: 27.8 µM

Compound: CNc1nc(N2CCN(C(=O)C(CNC(C)C)c3ccc(Br)cc3)CC2)c2sccc2n1 (stereo not given)
- IC50 [1]: 4.9 µM

Compound: Cc1c[nH]c2ncnc(N3CCN(C(=O)C(CNC(C)C)c4ccc(Br)cc4)CC3)c12 (stereo not given)
- IC50 [1]: 15.8 µM
